Numbers after ± are expanded uncertainties.
Conditions: Liquid, Vibrating wire viscometry

COC [dimethyl ether]
Conditions | viscosity [mPa·s]
243.15 K | 0.2217 ± 0.0062
248.16 K | 0.2097 ± 0.006
253.15 K | 0.1988 ± 0.0058
258.14 K | 0.1889 ± 0.0057
263.15 K | 0.1796 ± 0.0055
268.14 K | 0.1709 ± 0.0054
273.14 K | 0.1628 ± 0.0052
278.13 K | 0.1552 ± 0.0051
283.14 K | 0.1479 ± 0.005
288.14 K | 0.1414 ± 0.0049
293.14 K | 0.1351 ± 0.0048
298.14 K | 0.129 ± 0.0047
303.14 K | 0.124 ± 0.0047
308.14 K | 0.1181 ± 0.0046
313.14 K | 0.1129 ± 0.0045
318.12 K | 0.108 ± 0.0045
323.12 K | 0.1031 ± 0.0044
328.12 K | 0.09861 ± 0.0044
333.13 K | 0.09419 ± 0.0043
338.13 K | 0.08983 ± 0.0043
343.13 K | 0.08575 ± 0.0042
348.13 K | 0.08166 ± 0.0042
353.12 K | 0.07777 ± 0.0042
358.13 K | 0.07388 ± 0.0042
363.13 K | 0.07014 ± 0.0041
368.13 K | 0.06636 ± 0.0041
373.13 K | 0.06256 ± 0.0041

viscosity [mPa·s]
Conditions | 5000 kPa | 10000 kPa | 15000 kPa | 20000 kPa | 25000 kPa | 30000 kPa
253.15 K | 0.2044 ± 0.0059 | 0.2125 ± 0.006 | 0.2199 ± 0.0062 | 0.2314 ± 0.0064 | 0.2421 ± 0.0066 | 0.2541 ± 0.0068
263.15 K | 0.1836 ± 0.0056 | 0.1911 ± 0.0057 | 0.1989 ± 0.0058 | 0.2068 ± 0.006 | 0.2156 ± 0.0061 | 0.2252 ± 0.0063
273.14 K | 0.1669 ± 0.0053 | 0.1742 ± 0.0054 | 0.1816 ± 0.0056 | 0.189 ± 0.0057 | 0.196 ± 0.0058 | 0.2035 ± 0.0059
283.14 K | 0.1521 ± 0.0051 | 0.159 ± 0.0052 | 0.1657 ± 0.0053 | 0.1724 ± 0.0054 | 0.1791 ± 0.0055 | 0.1857 ± 0.0056
293.14 K | 0.1395 ± 0.0049 | 0.1455 ± 0.005 | 0.1527 ± 0.0051 | 0.1586 ± 0.0052 | 0.1652 ± 0.0053 | 0.1709 ± 0.0054
303.14 K | 0.1276 ± 0.0047 | 0.134 ± 0.0048 | 0.1401 ± 0.0049 | 0.1464 ± 0.005 | 0.1521 ± 0.0051 | 0.1584 ± 0.0052
313.14 K | 0.1165 ± 0.0046 | 0.1235 ± 0.0047 | 0.1294 ± 0.0048 | 0.1355 ± 0.0049 | 0.1415 ± 0.0049 | 0.1473 ± 0.005
323.12 K | 0.107 ± 0.0045 | 0.1139 ± 0.0046 | 0.1199 ± 0.0046 | 0.1262 ± 0.0047 | 0.1316 ± 0.0048 | 0.137 ± 0.0049
333.12 K | 0.09797 ± 0.0044 | 0.1049 ± 0.0044 | 0.1111 ± 0.0045 | 0.117 ± 0.0046 | 0.1231 ± 0.0047 | 0.1284 ± 0.0047
343.13 K | 0.08951 ± 0.0043 | 0.09664 ± 0.0043 | 0.1036 ± 0.0044 | 0.1096 ± 0.0045 | 0.1151 ± 0.0046 | 0.1204 ± 0.0046
353.12 K | 0.08119 ± 0.0042 | 0.08899 ± 0.0043 | 0.0959 ± 0.0043 | 0.1017 ± 0.0044 | 0.1075 ± 0.0045 | 0.1127 ± 0.0045
363.13 K | – | 0.08181 ± 0.0042 | 0.08877 ± 0.0043 | 0.09499 ± 0.0043 | 0.101 ± 0.0044 | 0.1066 ± 0.0045
373.13 K | 0.06522 ± 0.0042 | 0.07506 ± 0.0042 | 0.08237 ± 0.0042 | 0.08883 ± 0.0043 | 0.09475 ± 0.0043 | 0.09991 ± 0.0044
